Data as given in ChEMBL document CHEMBL4190235, “Polysubstituted 2-aminoimidazoles as anti-biofilm and antiproliferative agents: Discovery of potent lead” (Eur J Med Chem, 2017).
Calls of active or inactive are those of the source. The rule behind the calls is not given here.

Experiments:
A-375 [1] = experiment: Antiproliferative activity against human A375 cells after 48 hrs by MTT assay; type: functional, cell-based; conditions: A-375, 48 h
MIA PaCa-2 [2] = experiment: Cell cycle arrest in human MIAPaCa2 cells assessed as accumulation at subG1 phase at IC50 concentration after 48 hrs by propidium iodide staining based flow cytometry (reference value: 1.53 +/- 0.4%); type: functional
Staphylococcus aureus [3] = experiment: Inhibition of planktonic growth of Staphylococcus aureus SH1000; type: organism-based
Salmonella typhimurium [4] = experiment: Antibiofilm activity against Salmonella typhimurium ATCC 14028 after 24 hrs by crystal violet staining based method; type: functional, Salmonella enterica subsp. enterica serovar Typhimurium
A-375 [5] = experiment: Antiproliferative activity against human A375 cells assessed as reduction in colony forming ability at IC50 concentration after 10 to 14 days by crystal violet-staining based assay; type: functional, cell-based
MIA PaCa-2 [6] = experiment: Cell cycle arrest in human MIAPaCa2 cells assessed as accumulation at G2/M phase at IC50 concentration after 48 hrs by propidium iodide staining based flow cytometry (reference value: 16.66 +/- 0.8%); type: functional
A-375 [7] = experiment: Cytotoxicity against human A375 cells assessed as reduction in cell viability at IC50 concentration after 24 hrs by calcein AM-dye based assay; type: functional
MIA PaCa-2 [8] = experiment: Cytotoxicity against human MIAPaCa2 cells assessed as reduction in cell viability at IC50 concentration after 24 hrs by calcein AM-dye based assay; type: functional
MIA PaCa-2 [9] = experiment: Antiproliferative activity against human MIAPaCa2 cells assessed as reduction in colony forming ability at IC50 concentration after 10 to 14 days by crystal violet-staining based assay; type: functional, cell-based
Pseudomonas aeruginosa [10] = experiment: Inhibition of planktonic growth of Pseudomonas aeruginosa PA14 cells; type: organism-based
Pseudomonas aeruginosa [11] = experiment: Antibiofilm activity against Pseudomonas aeruginosa PA14 after 24 hrs by crystal violet staining based method; type: functional
Salmonella typhimurium [12] = experiment: Inhibition of planktonic growth of Salmonella typhimurium ATCC 14028; type: organism-based, Salmonella enterica subsp. enterica serovar Typhimurium; conditions: Salmonella enterica
MIA PaCa-2 [13] = experiment: Cell cycle arrest in human MIAPaCa2 cells assessed as accumulation at G0/G1 phase at IC50 concentration after 48 hrs by propidium iodide staining based flow cytometry (reference value: 66.05 +/- 2.2%); type: functional
A-375 [14] = experiment: Cell cycle arrest in human A375 cells assessed as accumulation at subG1 phase at IC50 concentration after 48 hrs by propidium iodide staining based flow cytometry (reference value: 1.1 +/- 0.4%); type: functional
A-375 [15] = experiment: Cell cycle arrest in human A375 cells assessed as accumulation at G2/M phase at IC50 concentration after 48 hrs by propidium iodide staining based flow cytometry (reference value: 8.18 +/- 2.2%); type: functional
MIA PaCa-2 [16] = experiment: Cell cycle arrest in human MIAPaCa2 cells assessed as accumulation at S phase at IC50 concentration after 48 hrs by propidium iodide staining based flow cytometry (reference value: 17.29 +/- 1.8%); type: functional
A-375 [17] = experiment: Cell cycle arrest in human A375 cells assessed as accumulation at G0/G1 phase at IC50 concentration after 48 hrs by propidium iodide staining based flow cytometry (reference value: 64.18 +/- 2.6%); type: functional
MIA PaCa-2 [18] = experiment: Antiproliferative activity against human MIAPaCa2 cells after 48 hrs by MTT assay; type: functional, cell-based; conditions: MIA PaCa-2, 48 h
Staphylococcus aureus [19] = experiment: Antibiofilm activity against Staphylococcus aureus SH1000 after 48 hrs by crystal violet staining based method; type: functional
A-375 [20] = experiment: Cell cycle arrest in human A375 cells assessed as accumulation at S phase at IC50 concentration after 48 hrs by propidium iodide staining based flow cytometry (reference value: 30.48 +/- 1.4%); type: functional

In the case of `Cc1ccc(Cc2nc(N)n(CC(=O)Nc3ccc(C)cc3)c2-c2ccccc2Br)cc1`, the IC50 (A-375 [1]) is reported as 1.3 µM, the Activity (MIA PaCa-2 [2]) is reported as 16.33% and the IC50 (Staphylococcus aureus [3]) is reported as 5.8 µM. The MBIC50 (Salmonella typhimurium [4]) was 3.6 µM, the Activity (A-375 [5]) was “Active” and the Activity (MIA PaCa-2 [6]) was 48.99%. For the same compound, the Activity (A-375 [7]) was “Active”, the Activity (MIA PaCa-2 [8]) was “Active” and the Activity (MIA PaCa-2 [9]) was “Active”. It also gave an IC50 (Pseudomonas aeruginosa [10]) of 10.9 µM, an MBIC50 (Pseudomonas aeruginosa [11]) of 191 µM and an IC50 (Salmonella typhimurium [12]) of over 400 µM. The Activity (MIA PaCa-2 [13]) was 36.39%, the Activity (A-375 [14]) was 24.71% and the Activity (A-375 [15]) was 66.85%. It also gave an Activity (MIA PaCa-2 [16]) of 17.04%, an Activity (A-375 [17]) of 36.34% and an IC50 (MIA PaCa-2 [18]) of 2.9 µM. For the same compound, the MBIC50 (Staphylococcus aureus [19]) was 5.5 µM and the Activity (A-375 [20]) was 26.59%.
